According to US7370953B2, “Inkjet recording ink” (FUJIFILM Corporation, priority 2003, dated 2008):

Columns and labels:
[1] = Absorption spectrum of dye; format: physicochemical; conditions: comparative dyes; ratio as printed
Description: To this end, the dye to be used in the invention preferably is a yellow dye having a λmax at a wavelength range of from 390 nm to 470 nm and a I(λmax+70 nm)/I(λmax) ratio of not greater than 0.2, more preferably not greater than 0.1 in which I(λmax) is the absorbance at λmax and I(λmax+70 nm) is the absorbance at λmax+70 nm. Ideally speaking, the lower limit of the ratio is 0. In actuality, however, the lower limit of the ratio is about 0.01.

[2] = Oxidation potential of dye (vs SCE); format: physicochemical; conditions: comparative dyes; method not stated
Protocol: The value of oxidation potential (Eox) can be easily measured by those skilled in the art.
In some detail, for the measurement of oxidation potential, the test specimen is dissolved in a solvent such as dimethyl formamide and acetonitrile containing a supporting electrolyte such as sodium perchlorate and tetrapropylammonium perchlorate in a concentration of from […] to 1×10^−6 mol/l. The solution is then measured for oxidation potential with respect to SCE (saturated calomel electrode) by cyclic voltametry or DC polarography, etc. This value may deviate by a few tens of millivolts when affected by the difference in potential between liquids or the resistivity of sample solution, but the reproducibility of potential can be assured by putting a standard sample (e.g., hydroquinone) in the sample solution.
In order to unequivocally define oxidation potential, in the present invention, the value (vs SCE) measured in dimethyl formamide containing 0.1 mol dm^−3 of tetrapropylammonium perchlorate as a supporting electrolyte (dye concentration: 0.001 mol dm^−3) is defined as oxidation potential of dye.

| Compound | I(λmax)/I(λmax+70 nm) ratio [1] | oxidation potential [2] |
| --- | --- | --- |
| Cc1nn(-c2ccc(S(=O)(=O)[O-])cc2)c(O)c1/N=N/c1cccc(S(=O)(=O)Nc2cc(C(=O)[O-])cc(C(=O)[O-])c2)c1.[K+].[K+].[K+] [Yellow dye (C)] | ≤ 0.4 | ≤ 1.0 V (vs SCE) |
| Direct Yellow 11 [Yellow dye (D)] | greater than 0.4 | ≤ 1.0 V (vs SCE) |
